Results as given in patent US20110144079A1, “ANTIMICROBIAL SYSTEM” (priority 2008, published 2011).

Key:
[1] = test system: B. cereus; assay: Broth microdilution MIC/MBC; type: cell-based; settings: Bacillus cereus, 24 h at 37° C.
Procedure: (§1) Broth microdilution tests were performed according to NCCLS guidelines. Serial two-fold dilutions of each imidazolium salt (from an original working solution which had been 0.22 μm sterile filtered) in Mueller-Hinton Broth (MHB) (100 μl) were prepared in 96-well micro-titre plates over the range 0.0000625-1% w/v. The inoculum to be tested was prepared by adjusting the turbidity of an actively overnight growing broth culture in MHB to an optical density at 550 nm equivalent to 1×10^8 CFU/ml. The suspension was further diluted to provide a final inoculum density of 2×10^5 CFU/ml in MHB as verified by total viable count. The inoculum to be tested (100 μl, 2×10^5 CFU ml^−1) was added to each well of the microdilution trays which were incubated aerobically for 24 h at 37° C. Positive and negative growth controls were included in every assay (6 replicates). After determining the MICs, minimum bactericidal concentrations (MBCs) were determined by spreading 20 μl of suspension from wells showing no growth onto MHA plates, which were then incubated for 24 h and examined for 99.9% killing.

[2] = test system: E. coli NCTC 8196; assay: Broth microdilution MIC/MBC; type: cell-based; settings: Escherichia coli, NCTC8196; E. coli NCTC 8196, 24 h at 37° C.
Procedure: as §1

[3] = test system: K. aerogenes NCTC 7427; assay: Broth microdilution MIC/MBC; type: cell-based; settings: Klebsiella aerogenes, NCTC7427; K. aerogenes NCTC 7427, 24 h at 37° C.
Procedure: as §1

[4] = test system: P. aeruginosa PA01; assay: Broth microdilution MIC/MBC; type: cell-based; settings: Pseudomonas aeruginosa, PA01, 24 h, P. aeruginosa PA01, 24 h at 37° C.; read-out: MIC
Procedure: as §1

[5] = test system: P. mirabilis NCTC 12442; assay: Broth microdilution MIC/MBC; type: cell-based; settings: Proteus mirabilis, NCTC12442; P. mirabilis NCTC 12442, 24 h at 37° C.
Procedure: as §1

[6] = test system: S. aureus ATCC 29213; assay: Broth microdilution MIC/MBC; type: cell-based; settings: Staphylococcus aureus, ATCC29213; S. aureus ATCC 29213, 24 h at 37° C.
Procedure: as §1

[7] = test system: S. epidermidis ATCC 12228; assay: Broth microdilution MIC/MBC; type: cell-based; settings: Staphylococcus epidermidis, ATCC12228; S. epidermidis ATCC 12228, 24 h at 37° C.
Procedure: as §1

[8] = test system: S. epidermidis ATCC 35984; assay: Broth microdilution MIC/MBC; type: cell-based; settings: Staphylococcus epidermidis, ATCC35984, 24 h, S. epidermidis ATCC 35984, 24 h at 37° C.
Procedure: as §1

[9] = test system: MRSA; assay: Broth microdilution MIC/MBC; type: cell-based, methicillin-resistant S. aureus; settings: Staphylococcus aureus, 24 h at 37° C.
Procedure: as §1

[10] = test system: B. cereus; assay: Biofilm assay (Calgary Biofilm Device), MBEC; type: cell-based; settings: B. cereus 24 h biofilm, 24 h challenge
Procedure: (§2) Biofilms of each test organism were grown in the Calgary Biofilm Device (commercially available as the MBEC Assay™ for Physiology & Genetics, Innovotech Inc., Edmonton, Alberta, Canada). The device, a micro-titre plated based assay, consists of two parts; a microtitre plate containing the inoculated test medium and a polystyrene lid with 96 identical pegs on which the microbial biofilm forms under gyrorotary incubation. The biofilm assay was conducted according to the MBEC™ assay protocol as supplied by the manufacturer, with slight modifications. Inocula of each test organism were prepared in MHB as described above and adjusted to provide a final inoculum density of ˜10^7 CFU ml^−1 (as confirmed by viable count). 150 μl of the inoculated media was transferred to each well of the 96-well microtitre plate and the assay plate lid, bearing 96 pegs was placed into the microtitre plate. The MBEC assay plates were placed in a gyrorotary incubator (37° C., 95% relative humidity) for 24 h to permit growth and comparison of 24 h biofilms of each test strain. Positive and negative growth controls were included in each plate (6 replicates). Initial and 24 h planktonic viable counts were measured, as were 24 h biofilm counts, expressed as CFU peg^−1, according to manufacturers instructions. After 24 h, the peg lid of the MBEC assay plate was gently rinsed three times. After rinsing, the peg lid of the MBEC assay was transferred to a ‘challenge’ plate. Serial dilutions of each imidazolium salt were prepared in 200 μl of MHB containing various concentrations of IL in each well. Positive growth control and sterility control were included in each assay plate. […] Biofilms were dislodged into recovery media by sonication for 5 minutes and the peg lid discarded. The recovery plate is incubated overnight and visually checked after 24 h for turbidity. In addition, optical density measurements for each plate were recorded at 550 nm. Clear wells were taken as evidence of biofilm eradication and the MBEC value was assigned as the lowest concentration at which no growth was observed after 24 h incubation. Plates were incubated for a further 24 h to confirm biofilm eradication concentrations.

[11] = test system: K. aerogenes NCTC 7427; assay: Biofilm assay (Calgary Biofilm Device), MBEC; type: cell-based; settings: K. aerogenes NCTC 7427 24 h biofilm, 24 h challenge
Procedure: as §2

[12] = test system: S. aureus ATCC 29213; assay: Biofilm assay (Calgary Biofilm Device), MBEC; type: cell-based; settings: S. aureus ATCC 29213 24 h biofilm, 24 h challenge
Procedure: as §2

[13] = test system: S. epidermidis ATCC 12228; assay: Biofilm assay (Calgary Biofilm Device), MBEC; type: cell-based
Procedure: as §2

[14] = test system: S. epidermidis ATCC 35984; assay: Biofilm assay (Calgary Biofilm Device), MBEC; type: cell-based; settings: S. epidermidis ATCC 35984 24 h biofilm, 24 h challenge
Procedure: as §2

Row | SMILES | MIC [1] [µM] | MIC [2] [µM] | MIC [3] [µM] | MIC [4] [µM] | MIC [5] [µM] | MIC [6] [µM] | MIC [7] [µM] | MIC [8] [µM] | MIC [9] [µM] | MBEC [10] [µM] | MBEC [11] [µM] | MBEC [12] [µM] | MBEC [13] [µM] | MBEC [14] [µM]
1 | CCCCCCCCCCCCCC[n+]1ccc2ccccc2c1.[Br-] [IL4, N-tetradecylisoquinolinium bromide] | 3 | 24.1 | 7.9 | 48.2 | 193 | 7.9 | 7.9 | 7.9 | 24.1 | 7.9 | 63.4 | 126.9 | 31.7 | 31.5
2 | CCCCCCCCCCCCCC[n+]1cccc2cc(C)ccc21.[Br-] [IL3, N-tetradecyl-6-methylquinolinium bromide] | 2.9 | 11.6 | – | 23.2 | 92.9 | – | 8.2 | – | 23.2 | – | – | – | 8.2 | –
